Results taken from patent US10722514B2 (FLX Bio, Inc., priority 2017, dated 2020).

What follows are compounds tested against T1, recombinant full-length USP7 (Homo sapiens, UniProt Q93009) (assay: USP7-mediated ubiquitin-rhodamine cleavage assay). Conditions: recombinant full-length USP7 62 pM; ubiquitin-rhodamine 100 nM; 30-minute incubation with compound, 1 hour reaction at room temperature; read-out: Potency: USP7 IC50.
T1 construct: A 25 μl reaction volume containing recombinant full-length USP7 (62 pM)
T1 sequence (Q93009 whole entry): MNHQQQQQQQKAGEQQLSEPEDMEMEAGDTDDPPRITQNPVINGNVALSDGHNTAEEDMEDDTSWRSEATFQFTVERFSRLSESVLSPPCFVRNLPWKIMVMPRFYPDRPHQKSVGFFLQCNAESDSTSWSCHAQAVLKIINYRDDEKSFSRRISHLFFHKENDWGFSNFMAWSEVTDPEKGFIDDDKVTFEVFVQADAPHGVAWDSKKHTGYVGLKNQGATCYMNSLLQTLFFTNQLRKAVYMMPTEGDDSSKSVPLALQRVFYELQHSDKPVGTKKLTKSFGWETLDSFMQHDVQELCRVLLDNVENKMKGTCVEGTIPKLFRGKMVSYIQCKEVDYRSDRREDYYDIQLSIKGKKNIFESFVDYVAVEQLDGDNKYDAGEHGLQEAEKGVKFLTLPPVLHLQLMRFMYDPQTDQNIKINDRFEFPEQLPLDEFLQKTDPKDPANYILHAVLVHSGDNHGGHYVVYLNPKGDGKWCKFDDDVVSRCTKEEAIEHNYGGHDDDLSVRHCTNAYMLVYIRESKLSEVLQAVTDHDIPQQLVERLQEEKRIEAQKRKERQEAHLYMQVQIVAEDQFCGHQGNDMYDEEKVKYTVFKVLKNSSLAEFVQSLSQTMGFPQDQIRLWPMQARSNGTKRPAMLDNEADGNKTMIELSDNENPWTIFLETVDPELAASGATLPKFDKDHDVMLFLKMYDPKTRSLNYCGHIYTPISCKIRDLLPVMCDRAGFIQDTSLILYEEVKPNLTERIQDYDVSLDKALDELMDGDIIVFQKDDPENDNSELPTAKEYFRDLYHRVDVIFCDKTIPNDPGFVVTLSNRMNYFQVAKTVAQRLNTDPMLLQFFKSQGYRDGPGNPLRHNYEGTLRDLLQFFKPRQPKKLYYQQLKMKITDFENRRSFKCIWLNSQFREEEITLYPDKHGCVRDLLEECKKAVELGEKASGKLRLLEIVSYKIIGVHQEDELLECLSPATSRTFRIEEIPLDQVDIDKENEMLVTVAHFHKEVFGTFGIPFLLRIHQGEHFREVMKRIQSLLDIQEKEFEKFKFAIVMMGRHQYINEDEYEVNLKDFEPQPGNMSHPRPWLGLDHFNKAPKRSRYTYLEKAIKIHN
Format: biochemical
Summary of the method: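 Full-length recombinant USP7 (62 pM) in 20 mM HEPES pH 7.3, 150 mM NaCl, 1 mM TCEP, 125 μg/ml BSA, 1% DMSO, preincubated with compound 30 min at RT. Ubiquitin-rhodamine (100 nM final) cleaved 1 h at RT in the dark, stopped with acetic acid; rhodamine fluorescence read, IC50 by 4-parameter nonlinear fit.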
In the case of `Cc1cc(Cl)cc(-c2ncnc3cc(CN4C(=O)CSC4=O)sc23)c1OC1CCNCC1` [Example 226, 3-((4-(5-Chloro-3-methyl-2-(piperidin-4-yloxy)phenyl)thieno[3,2-d]pyrimidin-6-yl)methyl)thiazolidine-2,4-dione], the IC50 is reported as 1000 to 10000 nM.
For `CCC(O)c1cc2nccc(-c3cc(Cl)cc(C)c3OCC3CN(C)C3)c2s1` (stereo not drawn) [Example 3, 1-(7-(5-Chloro-3-methyl-2-((1-methylazetidin-3-yl)methoxy)phenyl)thieno[3,2-b]pyridin-2-yl)propan-1-ol], the IC50 was 10000 to 30000 nM.
In the case of `Cc1cc(Cl)cc(-c2ncnc3cc(CN4C(=O)C5C(C4=O)C5(C)C)sc23)c1O[C@@H]1CCNC[C@H]1F` (stereo partly drawn) [Example 352, 3-[[4-[5-chloro-2-[[(3R,4R)-3-fluoro-4-piperidyl]oxy]-3-methyl-phenyl]thieno[3,2-d]pyrimidin-6-yl]methyl]-6,6-dimethyl-3-azabicyclo[3.1.0]hexane-2,4-dione; 2,2,2-trifluoroacetic acid], the IC50 is reported as under 1000 nM.
In the case of `Cc1cc(Cl)cc(-c2ncnc3cc(CN4C(=O)C5CCCN5C4=O)sc23)c1O[C@@H]1CNC[C@@H]1F` (stereo partly drawn) [Example 160, 2-((4-(5-Chloro-2-(((3R,4S)-4-fluoropyrrolidin-3-yl)oxy)-3-methylphenyl)thieno[3,2-d]pyrimidin-6-yl)methyl)tetrahydro-1H-pyrrolo[1,2-c]imidazole-1,3(2H)-dione], the IC50 is reported as 1000 to 10000 nM.
`Cc1cc(Cl)cc(-c2ccnc3cc(CN4C(=O)CCC4=O)sc23)c1OC1CCNC(C)(C)C1` (stereo not drawn) [Example 205, 1-((7-(5-Chloro-2-((2,2-dimethylpiperidin-4-yl)oxy)-3-methylphenyl)thieno[3,2-b]pyridin-2-yl)methyl)pyrrolidine-2,5-dione] was tested, and the IC50 was under 1000 nM.
Work on `C[C@H]1CNCC[C@H]1Oc1ccccc1-c1ccnc2cc(Cn3c(=O)ccn(CC(F)(F)F)c3=O)sc12` [Example 292, 3-[[7-[2-[[(3S,4R)-3-methyl-4-piperidyl]oxy]phenyl]thieno[3,2-b]pyridin-2-yl]methyl]-1-(2,2,2-trifluoroethyl)pyrimidine-2,4-dione] yielded an IC50 of under 1000 nM.
`Cc1cc(Cl)cc(-c2ccnc3cc(CO)sc23)c1OC1COC2(CNC2)C1` (stereo not drawn) [Example 40, (7-(2-((5-Oxa-2-azaspiro[3.4]octan-7-yl)oxy)-5-chloro-3-methylphenyl)thieno[3,2-b]pyridin-2-yl)methanol] gave an IC50 of 10000 to 30000 nM.
With `Cc1cc(Cl)cc(-c2ccnc3cc(CN4C(=O)CCCC4=O)sc23)c1OC1CCNCC1` [Example 235, 1-((7-(5-Chloro-3-methyl-2-(piperidin-4-yloxy)phenyl)thieno[3,2-b]pyridin-2-yl)methyl)piperidine-2,6-dione] the IC50 was under 1000 nM.
`Cc1cc(Cl)cc(-c2ccnc3cc(CO)sc23)c1O[C@@H]1CCCC[C@@H]1N` [Example 196, (7-(2-(((1R,2S)-2-Aminocyclohexyl)oxy)-5-chloro-3-methylphenyl)thieno[3,2-b]pyridin-2-yl)methanol] showed an IC50 of over 30000 nM.
`Cc1cc(Cl)cc(-c2ncnc3ccsc23)c1OCC1(C)CNC1` [Example 26, 4-(5-Chloro-3-methyl-2-((3-methylazetidin-3-yl)methoxy)phenyl)thieno[3,2-d]pyrimidine] showed an IC50 of 10000 to 30000 nM.
Work on `Cc1cc(Cl)cc(-c2ncnc3cc(Cn4c(=O)ccn(C)c4=O)sc23)c1OC1CCNCC1` [Example 232, 3-((4-(5-Chloro-3-methyl-2-(piperidin-4-yloxy)phenyl)thieno[3,2-d]pyrimidin-6-yl)methyl)-1-methylpyrimidine-2,4(1H,3H)-dione] yielded an IC50 of under 1000 nM.
With “1-((4-(5-Chloro-2-(((3R,4S)-4-fluoropyrrolidin-3-yl)oxy)-3-methylphenyl)thieno[3,2-d]pyrimidin-6-yl)methyl)pyrrolidine-2,5-dione [Example 96]” the IC50 was under 1000 nM.
`Cc1cc(Cl)cc(-c2ccnc3cc(CN4C(=O)COC4=O)sc23)c1O[C@H]1CCCNC1` [Example 330, 3-[[7-[5-chloro-3-methyl-2-[[(3S)-3-piperidyl]oxy]phenyl]thieno[3,2-b]pyridin-2-yl]methyl]oxazolidine-2,4-dione; 2,2,2-trifluoroacetic acid] was tested, and the IC50 was under 1000 nM.
`Cc1cc(Cl)cc(-c2ccnc3cc(CN4C(=O)C5C(C4=O)C5(C)C)sc23)c1O[C@H]1CCNC[C@@H]1F` (stereo partly drawn) [Example 383, 3-[[7-[5-chloro-2-[[(3S,4S)-3-fluoro-4-piperidyl]oxy]-3-methyl-phenyl]thieno[3,2-b]pyridin-2-yl]methyl]-6,6-dimethyl-3-azabicyclo[3.1.0]hexane-2,4-dione; 2,2,2-trifluoroacetic acid] was tested, and the IC50 was under 1000 nM.

Same assay, conditions: recombinant full-length USP7 62 pM; ubiquitin-rhodamine 100 nM; 30-minute incubation, 1 hour reaction at room temperature; read-out: Potency (USP7 IC50)
In the case of `Cc1cc(Cl)cc(-c2ccnc3cc(Cn4c(=O)ccn(CC(F)(F)F)c4=O)sc23)c1OC1CC(N2C[C@@H]3C[C@H]2CO3)C1` (stereo partly drawn) [Example 675, 3-[[7-[5-chloro-3-methyl-2-[3-[(1S,4S)-2-oxa-5-azabicyclo[2.2.1]heptan-5-yl]cyclobutoxy]phenyl]thieno[3,2-b]pyridin-2-yl]methyl]-1-(2,2,2-trifluoroethyl)pyrimidine-2,4-dione], the IC50 is reported as under 1000 nM.
`Cc1cc(Cl)cc(-c2ccnc3cc(Cn4c(=O)ccn(CC(F)(F)F)c4=O)sc23)c1OC1CC(N2CCC[C@H]2CF)C1` (stereo partly drawn) [Example 687, 3-[[7-[5-chloro-2-[3-[(2S)-2-(fluoromethyl)pyrrolidin-1-yl]cyclobutoxy]-3-methyl-phenyl]thieno[3,2-b]pyridin-2-yl]methyl]-1-(2,2,2-trifluoroethyl)pyrimidine-2,4-dione; 2,2,2-trifluoroacetic acid] showed an IC50 of under 1000 nM.
`Cc1cc(Cl)cc(-c2ccnc3cc(Cn4c(=O)ccn(CC(F)(F)F)c4=O)sc23)c1O[C@H]1C[C@@H]2NCCO[C@H]2C1` [Example 694, 3-[[7-[2-[[(4aS,6S,7aS)-2,3,4,4a,5,6,7,7a-octahydrocyclopenta[b][1,4]oxazin-6-yl]oxy]-5-chloro-3-methyl-phenyl]thieno[3,2-b]pyridin-2-yl]methyl]-1-(2,2,2-trifluoroethyl)pyrimidine-2,4-dione] was tested, and the IC50 was under 1000 nM.

Same assay, conditions: recombinant full-length USP7 62 pM; ubiquitin-rhodamine 100 nM; 30-minute pre-incubation, 1 hour reaction at room temperature; read-out: Potency (USP7 IC50)
Compound `Cc1cc(Cl)cc(-c2ccnc3cc(Cn4c(=O)ccn(CC(F)(F)F)c4=O)sc23)c1OCCN1CCCCC1` [Example 666, 3-[[7-[5-chloro-3-methyl-2-[2-(1-piperidyl)ethoxy]phenyl]thieno[3,2-b]pyridin-2-yl]methyl]-1-(2,2,2-trifluoroethyl)pyrimidine-2,4-dione] has an IC50 of under 1000 nM.
Compound `Cc1cc(C(F)(F)F)cc(-c2ccnc3cc(Cn4c(=O)ccn(C)c4=O)sc23)c1O[C@H]1CCCNC1` [Example 445] has an IC50 of under 1000 nM.
Compound `COC(=O)N1CC[C@@H](Oc2c(C)cc(Cl)cc2-c2ccnc3cc(Cn4c(=O)ccn(CC(F)(F)F)c4=O)sc23)[C@@H](C)C1` [Example 643, methyl (3S,4R)-4-[4-chloro-2-[2-[[2,6-dioxo-3-(2,2,2-trifluoroethyl)pyrimidin-1-yl]methyl]thieno[3,2-b]pyridin-7-yl]-6-methyl-phenoxy]-3-methyl-piperidine-1-carboxylate] has an IC50 of under 1000 nM.
Work on `Cc1cc(Cl)cc(-c2ncnc3cc(Cn4c(=O)ccn(C(C)C)c4=O)sc23)c1O[C@H]1CCNC[C@@H]1F` [Example 564, 3-[[4-[5-chloro-2-[[(3S,4S)-3-fluoro-4-piperidyl]oxy]-3-methyl-phenyl]thieno[3,2-d]pyrimidin-6-yl]methyl]-1-isopropyl-pyrimidine-2,4-dione] yielded an IC50 of under 1000 nM.
In the case of `Cc1cc(Cl)cc(-c2ccnc3cc(Cn4c(=O)ccn(CC(F)(F)F)c4=O)sc23)c1O[C@@H]1CCCN[C@@H]1C` [Example 621, 3-[[7-[5-chloro-3-methyl-2-[[(2R,3R)-2-methyl-3-piperidyl]oxy]phenyl]thieno[3,2-b]pyridin-2-yl]methyl]-1-(2,2,2-trifluoroethyl)pyrimidine-2,4-dione; 2,2,2-trifluoroacetic acid], the IC50 is reported as under 1000 nM.
`Cc1cc(Cl)cc(-c2ccnc3cc(Cn4c(=O)ccn(C)c4=O)sc23)c1O[C@@H]1CNC[C@H](F)C1` [Example 497, 3-[[7-[5-chloro-2-[[(3S,5R)-5-fluoro-3-piperidyl]oxy]-3-methyl-phenyl]thieno[3,2-b]pyridin-2-yl]methyl]-1-methyl-pyrimidine-2,4-dione] was tested, and the IC50 was under 1000 nM.
`Cc1cc(Cl)cc(-c2ncnc3cc(Cn4c(=O)ccn(CC(F)(F)F)c4=O)sc23)c1O[C@H]1CCCNCC1` [Example 580, 3-[[4-[2-[(4S)-azepan-4-yl]oxy-5-chloro-3-methyl-phenyl]thieno[3,2-d]pyrimidin-6-yl]methyl]-1-(2,2,2-trifluoroethyl)pyrimidine-2,4-dione; 2,2,2-trifluoroacetic acid] showed an IC50 of under 1000 nM.
Compound `Cc1cc(Cl)cc(-c2ccnc3cc(Cn4c(=O)ccn(CC(F)(F)F)c4=O)sc23)c1O[C@@H]1CCN(C2CCOC2)C[C@H]1C` (stereo partly drawn) [Example 608, 3-[[7-[5-chloro-3-methyl-2-[[(3R,4R)-3-methyl-1-tetrahydrofuran-3-yl-4-piperidyl]oxy]phenyl]thieno[3,2-b]pyridin-2-yl]methyl]-1-(2,2,2-trifluoroethyl)pyrimidine-2,4-dione] has an IC50 of under 1000 nM.
In the case of `Cc1cc(Cl)cc(-c2ccnc3cc(Cn4c(=O)ccn(C)c4=O)sc23)c1O[C@@H]1CNCC(C)(C)C1` [Example 536, 3-[[7-[5-chloro-2-[[(3S)-5-dimethyl-3-piperidyl]oxy]-3-methyl-phenyl]thieno[3,2-b]pyridin-2-yl]methyl]-1-methyl-pyrimidine-2,4-dione; 2,2,2-trifluoroacetic acid], the IC50 is reported as under 1000 nM.
In the case of `Cc1cc(Cl)cc(-c2ccnc3cc(Cn4c(=O)ccn(CC(F)(F)F)c4=O)sc23)c1O[C@H]1CC[C@H](N)C1` [Example 596, 3-[[7-[2-[(1S,3S)-3-aminocyclopentoxy]-5-chloro-3-methyl-phenyl]thieno[3,2-b]pyridin-2-yl]methyl]-1-(2,2,2-trifluoroethyl)pyrimidine-2,4-dione; 2,2,2-trifluoroacetic acid], the IC50 is reported as under 1000 nM.
